{"source": "patent US20230060425A1", "about": "“FUSED BICYCLIC HETEROCYCLE DERIVATIVES AS PESTICIDES” (Bayer Aktiengesellschaft, priority 2019, published 2023)", "type_in_all_cases": "in vivo", "key": {"[1]": {"system": "Aphis gossypii", "assay": "Aphis gossypii spray test (APHIGO S)", "conditions": "144 h, 6 dat, read-out: % Efficacy", "procedure": "Aphis gossypii—Spray Test (APHIGO S)\n(§1) Solvent: 14 parts by weight of dimethylformamide\n(§2) Emulsifier: alkylaryl polyglycol ether\n(§3) To produce a suitable active compound preparation, 1 part by weight of active compound is dissolved using the stated parts by weight of solvent and made up with water containing an emulsifier concentration of 1000 ppm until the desired concentration is attained. To produce further test concentrations, the formulation is diluted with emulsifier-containing water. If the addition of ammonium salts or/and penetrants is required, these are each added in a concentration of 1000 ppm to the formulation solution.\nCotton plants (Gossypium hirsutum) heavily infested by the cotton aphid (Aphis gossypii) are sprayed with an active compound formulation of the desired concentration.\nAfter the desired time, the kill in % is determined. 100% means that all the aphids have been killed; 0% means that no aphids have been killed."}, "[2]": {"system": "Ctenocephalides felis", "assay": "Ctenocephalides felis oral test", "conditions": "48 h, application rate 100 ppm, in citrated cattle blood, after 2 days, read-out: efficacy (kill in %)", "how_it_was_run": "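Adult unfed cat fleas (~20 per chamber) fed through parafilm membrane on citrated cattle blood containing compound (DMSO formulation diluted in blood to test concentration). Kill (%) scored after 2 days; 100% = all fleas dead, 0% = none.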"}, "[3]": {"system": "Spodoptera frugiperda", "assay": "Spodoptera frugiperda test on maize plants (SPODFR S)", "conditions": "6 dai, read-out: % Efficacy", "procedure": "Spodoptera frugiperda Test (SPODFR S)\nas §1\nEmulsifier: 2 parts by weight of alkylaryl polyglycol ether\nTo produce a suitable active compound formulation, 1 part by weight of active compound is dissolved with the stated parts by weight of solvent and emulsifier and made up to the desired concentration with water. To produce further test concentrations, water is used for dilution. In the event that addition of ammonium salts or/and penetrants (rapeseed oil methyl ester) is required, these are each pipetted in at a concentration of 1000 ppm after the finished formulation solution has been diluted.\nMaize plants (Zea mays) are sprayed with an active compound formulation of the desired concentration and, in each case after 5, 12 and 19 days, populated with 5 caterpillars (L2) of the fall armyworm (Spodoptera frugiperda).\nThe kill is determined 6 days after the infection. 100% means that all the caterpillars have been killed and 0% means that none of the caterpillars have been killed."}, "[4]": {"system": "Phaedon cochleariae", "assay": "Phaedon cochleariae spray test", "conditions": "foliar, 168 h, application rate 100 g/ha, Chinese cabbage leaf discs, after 7 days, read-out: efficacy", "how_it_was_run": "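Chinese cabbage leaf discs sprayed with compound formulated in acetone/DMF and emulsifier-containing water, then infested with mustard beetle larvae after drying. Efficacy read after 7 days as % larvae killed.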"}, "[5]": {"system": "Myzus persicae", "assay": "Myzus persicae drench test (MYZUPE D)", "conditions": "soil, 240 h, 10 dat, read-out: % Efficacy", "procedure": "Myzus persicae—Drench Test (MYZUPE D)\nSolvent: 7 parts by weight of dimethylformamide\nEmulsifier: 2 part by weight of alkylaryl polyglycol ether\nTo produce a suitable active compound preparation, 1 part by weight of active compound is mixed with the specified amounts of solvent and emulsifier, and the concentrate is diluted with water to the desired concentration, it being necessary to include the volume of soil which is drenched in the calculation. It should be ensured that a concentration of 40 ppm of emulsifier in the soil is not exceeded. To produce further test concentrations, water is used for dilution.\nSavoy cabbage (Brassica oleracea) in pots with soil and infested by all stages of the green peach aphid (Myzus persicae) is watered with an active compound preparation of the desired concentration.\n(§4) After the desired period of time, the efficacy in % is determined. 100% means that all the aphids have been killed; 0% means that no aphids have been killed."}, "[6]": {"system": "Myzus persicae", "assay": "Myzus persicae spray test (MYZUPE), comparative", "conditions": "120 h, 5 dat, read-out: % Efficacy", "procedure": "Myzus persicae—Spray Test (MYZUPE)\nSolvent: • 78.0 parts by weight of acetone • 1.5 parts by weight of dimethylformamide\nas §2\nas §3, with “water.” for “water. If the addition of ammonium salts or/and penetrants is required, these are each added in a concentration of 1000 ppm to the formulation solution.”\nDiscs of Chinese cabbage leaves (Brassica pekinensis) infested by all stages of the green peach aphid (Myzus persicae) are sprayed with an active compound preparation of the desired concentration.\nas §4"}, "[7]": {"system": "Rhipicephalus sanguineus", "assay": "Rhipicephalus sanguineus in vitro contact test with adult brown dog ticks", "conditions": "application rate 5 μg/cm^2; after 48 h; ticks dead or moribund", "procedure": "Rhipicephalus sanguineus—In Vitro Contact Tests with Adult Brown Dog Ticks\nFor the coating of the test tubes, 9 mg of active compound are first dissolved in 1 ml of acetone p.a. and then diluted to the desired concentration with acetone p.a. 250 μl of the solution are distributed homogeneously on the inner walls and the base of a 25 ml glass tube by turning and rocking on an orbital shaker (rocking rotation at 30 rpm for 2 h). With 900 ppm of active compound solution and internal surface area 44.7 cm^2, given homogeneous distribution, an area-based dose of 5 μg/cm^2 is achieved.\nAfter the solvent has evaporated off, the tubes are populated with 5-10 adult dog ticks (Rhipicephalus sanguineus), sealed with a perforated plastic lid and incubated in a horizontal position in the dark at room temperature and ambient humidity. After 48 h, efficacy is determined. To this end, the ticks are knocked to the base of the tube and incubated on a hotplate at 45-50° C. for not more than 5 min. Ticks which remain motionless on the base or move in such an uncoordinated manner that they are unable to deliberately avoid the heat by climbing upwards are considered to be dead or moribund.\nAn efficacy of 100% means that all the ticks were dead or moribund. 0% efficacy means that none of the ticks were harmed."}, "[8]": {"system": "Myzus persicae", "assay": "Myzus persicae spray test on bell pepper plants (MYZUPE S)", "conditions": "144 h, 6 dat, read-out: % Efficacy", "procedure": "Myzus persicae—Spray Test (MYZUPE S)\nas §1, §2, §3\nBell pepper plants (Capsicum annuum) severely infested with the green peach aphid (Myzus persicae) are treated by spraying with the active compound formulation in the desired concentration.\nAfter the desired time, the kill in % is determined. 100% means that all the animals have been killed; 0% means that no animals have been killed."}}, "note": "Read-outs that look alike come from different tables or passages of the source."}
{"smiles": "CCS(=O)(=O)c1c(-c2nc3cc(C(F)(F)F)cnc3n2C)ncc2cc(Br)ccc12", "note": "[Example I-037, 7-Bromo-4-ethylsulfonyl-3-[3-methyl-6-(trifluoromethyl)imidazo[4,5-b]pyridin-2-yl]isoquinoline]", "values": [{"measurement": "Emax at 4 ppm", "setting": "[1]", "value": 65, "unit": "%"}, {"measurement": "pest or weed control at 100 ppm", "setting": "[2]", "value": 100, "unit": "%"}, {"measurement": "Emax at 0.16 ppm", "setting": "[3]; 120 h, infection 5 dat", "value": 70, "unit": "%"}, {"measurement": "Emax at 0.16 ppm", "setting": "[3]; 288 h, infection 12 dat", "value": 50, "unit": "%"}, {"measurement": "Emax at 0.8 ppm", "setting": "[3]; 288 h, infection 12 dat", "value": 100, "unit": "%"}, {"measurement": "Emax at 0.8 ppm", "setting": "[3]; 456 h, infection 19 dat", "value": 100, "unit": "%"}, {"measurement": "pest or weed control at 100 g/ha", "setting": "[4]", "value": 100, "unit": "%"}, {"measurement": "Emax at 4 ppm", "setting": "[5]", "value": 90, "unit": "%"}, {"measurement": "Emax at 4 g/ha", "setting": "[6]; 4 g of ai/ha", "value": 70, "unit": "%"}, {"measurement": "Emax at 20 g/ha", "setting": "[6]; 20 g of ai/ha", "value": 90, "unit": "%"}, {"measurement": "efficacy", "setting": "[7]", "value": 100, "unit": "%"}, {"measurement": "Emax at 0.8 ppm", "setting": "[8]; 0.8 ppm", "value": 100, "unit": "%"}, {"measurement": "Emax at 4 ppm", "setting": "[8]; 4 ppm", "value": 100, "unit": "%"}]}
